Consider 55 molecules from ChEMBL document CHEMBL1156829 (Proc Natl Acad Sci U S A, 2008).

The test system of data set [1] is Plasmodium falciparum. As to the kind of experiment: NOVARTIS: Inhibition of Plasmodium falciparum W2 (drug-resistant) proliferation in erythrocyte-based infection assay. Conditions: Plasmodium falciparum, W2; read-out: EC50. In kind it is functional, organism-based.
The nature of data set [2]: NOVARTIS: Cytotoxicity against human hepatocellular carcinoma cell line (Huh7). In kind it is toxicity, cell-based, Huh-7. To be noted: Huh7 cells (hepatocellular carcinoma cell line).
For data set [3], the system named is Plasmodium falciparum. Briefly: NOVARTIS: Inhibition of Plasmodium falciparum 3D7 (drug-susceptible) proliferation in erythrocyte-based infection assay. It counts as functional, organism-based. To be noted: Plasmodium falciparum, 3D7.

The term EC50 denotes the midpoint of the concentration-response curve. By CC50 is commonly meant the concentration giving 50% cytotoxicity. Regarding `COc1cc2nc(NCC3CCCO3)n3nc(-c4ccccc4)nc3c2cc1OC` (stereo not given), the EC50 in data set [1] was 662 nM; in data set [3], 293 nM. In addition, in data set [2], the CC50 is > 100000 nM.
Consider `Cc1ccc(N(C(=O)c2snc(C(=O)NC3CCCCC3)c2N)C(C(=O)NCCc2ccccc2)c2ccc(O)cc2)c(C)c1` (stereo not given), for which the EC50 in data set [1] came out at 672 nM; in data set [3] it was 1480 nM. The CC50 in data set [2] is > 100000 nM.
The like results for `N=c1n(Cc2ccccc2)c2ccccc2n1CC(O)c1ccc(Cl)c(Cl)c1` (stereo not given) were, in that order, 43.6 nM, 214 nM and 6590 nM.
Take `COc1ccc2nc(C)cc(Nc3cccc(O)c3)c2c1`: the EC50 was 347 nM in data set [1] and 228 nM in data set [3]. The same molecule came in with a cytotoxic concentration (CC50) in data set [2] of 51000 nM.
Taken in the same sequence, the figures for `COc1cc(C(=O)NCCc2ccccn2)ccc1OC1CCN(CC(c2ccccc2)c2ccccc2)CC1` were 86.4 nM, 440 nM and 13000 nM.
As for `Cc1[nH]c2ccccc2c(=O)c1Br`, the EC50 stood at 686 nM in data set [1] and 532 nM in data set [3]. Further, the CC50 in data set [2] is > 100000 nM.
On to `Cc1c(C=O)c2ccccc2n1CC(=O)Nc1cccc(I)c1`, for which the figures for the EC50 in data set [1] and in data set [3] were 405 nM and 365 nM, respectively. For the same molecule, the CC50 in data set [2] was > 61200 nM.
Taken in the same sequence, the figures for `CN1CCN(c2nc(NN=Cc3cc(I)ccc3O)nc(Nc3ccc([N+](=O)[O-])cc3)n2)CC1` were 316 nM, 383 nM and 47700 nM.
Taken in the same sequence, the figures for `Fc1ccc(Nc2nc(NCc3ccccc3)c3ccccc3n2)cc1` were 58.6 nM, 75.5 nM and 8870 nM.
As for `CCCn1cc(SCC(=O)NCc2ccco2)c2ccccc21`, the figures for the EC50 in data set [1] and in data set [3] were 673 nM and 1020 nM, respectively. Moreover, the CC50 in data set [2] is > 100000 nM.
As for `O=C(NCCCCNC(=O)Nc1cccc(C2=NCCN2)c1)Nc1cccc(C2=NCCN2)c1`, the results for the EC50 in data set [1] and in data set [3] were 67.2 nM and 203 nM, respectively. In data set [2], the CC50 was > 10000 nM.
Consider `CCOC(=O)C1=C(C)NC2=C(C(=O)C(C(=O)OCC)C(c3cccc(OC)c3)C2)C1c1ccc(Br)cc1` (stereo not given), for which the EC50 turned out to be 671 nM in data set [1] and 2170 nM in data set [3]. Also, the CC50 in data set [2] is > 100000 nM.
For `Oc1ccc(-c2cncnc2)cc1CNC1CCN(Cc2ccccc2)CC1`, the EC50 in data set [1] turned out to be 671 nM; in data set [3], 698 nM. Further, the CC50 in data set [2] is > 100000 nM.
Consider `CC(=O)c1cc(CN2CCC(C(=O)Nc3ccc(-n4nc(C)cc4C)cc3)CC2)cs1`, for which the figures for the EC50 in data set [1] and in data set [3] were 665 nM and 969 nM, respectively. The cytotoxic concentration (CC50) in data set [2] is > 100000 nM.
Regarding `CN1CCc2c(sc3nc(SCc4ccccc4)n(-c4ccccc4)c(=O)c23)C1`, the EC50 was determined as 670 nM in data set [1] and 1770 nM in data set [3]. Moreover, the CC50 in data set [2] is > 100000 nM.
Taken in the same sequence, the figures for `CN1CCN(c2nc(NN=Cc3cccc(Cl)c3)nc(Nc3ccc([N+](=O)[O-])cc3)n2)CC1` were 290 nM, 500 nM and 43400 nM.
The like results for `O=C(NCc1ccc2c(c1)OCO2)C1CNCC1c1ccc(C(F)(F)F)cc1` (stereo not given) were, in that order, 362 nM, 325 nM and 54300 nM.
Turning to `Brc1ccc(/C=C/c2cc[n+](Cc3ccccc3)cc2)cc1`, the EC50 in data set [1] came out at 66.6 nM; in data set [3], 112 nM. The CC50 in data set [2] was > 10000 nM.
For `CCc1ccc2[nH]c(=O)c(CN(CCCN(CC)CC)C(=S)NCCCN(C)C)cc2c1`, the EC50 in data set [1] worked out at 664 nM; in data set [3], 2040 nM. Moreover, the CC50 in data set [2] is > 100000 nM.
Taken in the same sequence, the figures for `Cc1ccc(N=Nc2nc3ccccc3n2C)c(C)c1` were 24.1 nM, 87.5 nM and 3600 nM.
Taken in the same sequence, the figures for `CC1=CC(=C(C#N)c2nc3ccccc3s2)C=C(C)N1CC1CCCO1` (stereo not given) were 670 nM, 411 nM and > 100000 nM.
Taken in the same sequence, the figures for `C[N+](C)(CC#Cc1ccccc1)CC#Cc1ccccc1` were 679 nM, 1930 nM and > 100000 nM.
As to `CCC(C(=O)N1CCN(Cc2ccccc2)CC1)c1ccccc1` (stereo not given), the EC50 in data set [1] was determined as 677 nM; in data set [3] it was 6910 nM. In addition, the CC50 in data set [2] is > 100000 nM.
The like results for `CCCn1nc(Oc2nc(NCC)cc(OC)n2)ccc1=O` were, in that order, 677 nM, 384 nM and > 100000 nM.
As to `CCc1n(CC(=O)OC2CC(C)CCC2C(C)C)c2ccccc2[n+]1C` (stereo not given), the results for the EC50 in data set [1] and in data set [3] were 203 nM and 267 nM, respectively. In addition, the midpoint of cytotoxicity in data set [2], the CC50, lay at 29900 nM.
The like results for `CCOc1ccc2[nH]c(=O)c(CN(CCCN3CCOCC3)C(=S)NCCCN(CC)CC)cc2c1` were, in that order, 679 nM, 2610 nM and > 100000 nM.
The like results for `O=C(NC(=CC=Cc1ccccc1)C(=O)N1CCOCC1)c1ccc(Br)cc1` were, in that order, 683 nM, > 10400 nM and > 100000 nM.
Consider `CNc1ccccc1C(=O)N(C)CCc1ccccc1`, for which the EC50 is 68.3 nM in data set [1] and > 1250 nM in data set [3]. Also, in data set [2], the CC50 was > 10000 nM.
Taken in the same sequence, the figures for `Oc1ccc(-c2ccccn2)cc1CNC1CCN(Cc2ccccc2)CC1` were 143 nM, 411 nM and 21000 nM.
The like results for `CCOc1ccc(CCNC(=O)Nc2ccc(F)cc2)cc1OCC` were, in that order, 492 nM, 751 nM and > 74700 nM.
In the case of `CC(C)CN1CCC(O)(c2ccc3oc(C(=O)Nc4ccc5c(c4)OCO5)cc3c2)CC1`, the EC50 in data set [1] was determined as 363 nM; in data set [3], 1080 nM. In data set [2], this molecule came in with a CC50 of 55200 nM.
On to `Cc1ccccc1-c1cccc(CN2CCCCC2CCn2cc(C(=O)NC3CC3)nn2)c1` (stereo not given), for which the EC50 in data set [1] stood at 685 nM; in data set [3], 1470 nM. For the same molecule, the CC50 in data set [2] is > 100000 nM.
In the case of `COc1ccc(CNc2cc(-c3ccc(F)c(F)c3)nc3ccnn23)cc1`, the EC50 was 687 nM in data set [1] and 675 nM in data set [3]. The CC50 in data set [2] was > 100000 nM.
Taken in the same sequence, the figures for `COc1ccc(C(=O)ON=C(N)Cc2ccc(Cl)cc2Cl)cc1[N+](=O)[O-]` were 675 nM, 4980 nM and > 100000 nM.
On to `CC(NC(=O)C(=O)N1CCCCC1)C(c1cccs1)N1CCOCC1` (stereo not given), for which the EC50 in data set [1] was 675 nM; in data set [3] it was > 1680 nM. The CC50 in data set [2] was > 100000 nM.
The like results for `CCOC(=O)c1cnc2c(C)cc(C)cc2c1Nc1ccc(C(C)=O)cc1` were, in that order, 675 nM, 749 nM and > 100000 nM.
The like results for `Cc1cc(Nc2ccc(Cl)c(Cl)c2)n2ncnc2n1` were, in that order, 674 nM, 1680 nM and > 100000 nM.
Regarding `COc1ccc(Cl)cc1NC(=S)NNC(=O)c1cccnc1`, the EC50 in data set [1] amounted to 664 nM; in data set [3], 536 nM. Besides, the CC50 in data set [2] is > 100000 nM.
Turning to `O=C(Nc1ccc(-n2cnnn2)cc1)C1CCN(Cc2cc3ccccc3o2)CC1`, the values for the EC50 in data set [1] and in data set [3] were 416 nM and 198 nM, respectively. Also, the CC50 in data set [2] is > 61900 nM.
On to `O=c1c2c([nH]c3ccccc13)CCCCCCCCCC2`, for which the EC50 was 671 nM in data set [1] and 277 nM in data set [3]. Further, the CC50 in data set [2] was > 100000 nM.
With `Cc1ccc(-n2c(-c3ccccc3)cc(C=NNC(=O)c3cccc(-n4c(C)ccc4C)c3)c2-c2ccccc2)cc1`, the results for the EC50 in data set [1] and in data set [3] were 684 nM and 867 nM, respectively. Also, in data set [2], the 50% cytotoxic concentration (CC50) was > 100000 nM.
Taken in the same sequence, the figures for `c1ccc(CC[n+]2cc(-c3ccccc3)n3c2CCC3)cc1` were 684 nM, 660 nM and > 100000 nM.
The like results for `Clc1ccc(-c2c[n+](Cc3ccc(Cl)c(Cl)c3)c3n2CCC3)cc1` were, in that order, 623 nM, 446 nM and > 93600 nM.
On to `OC1CCCCC1C1(NC(=S)Nc2ccccc2)CCCCC1` (stereo not given), for which the EC50 in data set [1] was 153 nM; in data set [3], 211 nM. The CC50 in data set [2] came to 22800 nM.
Take `Cn1ccnc1C1CCCCN1C(=O)c1cc(COc2ccc(F)cc2Cl)on1` (stereo not given): the results for the EC50 in data set [1] and in data set [3] were 673 nM and 1830 nM, respectively. Also, the CC50 in data set [2] was > 100000 nM.
Turning to `CCCN(CCC)C(=O)Cn1ccc(=N)c2ccccc21`, the values for the EC50 in data set [1] and in data set [3] were 671 nM and 1200 nM, respectively. Besides, the CC50 in data set [2] is > 100000 nM.
The like results for `CC1=C(C(=O)OCC(C)C)C(c2ccc(OCc3ccccc3)cc2)C2=C(CC(c3ccccc3)CC2=O)N1` (stereo not given) were, in that order, 659 nM, 961 nM and > 100000 nM.
`COc1ccc(Nc2nc(NN=Cc3cc4c(cc3Br)OCO4)nc(Nc3ccc([N+](=O)[O-])cc3)n2)cc1`: the EC50 came to 684 nM in data set [1] and 460 nM in data set [3]. In addition, the CC50 in data set [2] was > 100000 nM.
The like results for `Cc1ccc(C(=O)Oc2ccccc2-c2nc3ccccn3c2NC(C)(C)CC(C)(C)C)cc1[N+](=O)[O-]` were, in that order, 67.5 nM, 1240 nM and > 10000 nM.
The like results for `O=C1CN(C(=O)CCC2CCCC2)C(c2ccc(F)cc2)c2cc(Cl)ccc2N1` (stereo not given) were, in that order, 180 nM, 231 nM and 26300 nM.
Taken in the same sequence, the figures for `O=C(O)c1ccc2c(c1)N=C(c1ccccc1)N(Cc1cccnc1)C2` were 65.7 nM, 476 nM and > 10000 nM.
`COc1cccc(-c2ccc(O)c(CN3CCCC(C)C3)c2)n1` (stereo not given): the EC50 in data set [1] came out at 67.9 nM; in data set [3], 543 nM. Further, the CC50 in data set [2] was > 10000 nM.
Consider `N#Cc1ccc(N2CCN(C(=O)c3ccc(F)cc3Cl)CC2)cc1`, for which the EC50 in data set [1] was 67.5 nM; in data set [3], 155 nM. For the same molecule, in data set [2], the half-maximal cytotoxic concentration (CC50) was > 10000 nM.
Taken in the same sequence, the figures for `CCCCNC(=O)c1nn(-c2ccc(OC)cc2)c(=O)c2ccccc12` were 680 nM, 2250 nM and > 100000 nM.
`C[n+]1cccc(C=C2c3ccccc3-c3ncccc32)c1`: the EC50 in data set [1] was found to be 678 nM; in data set [3], 173 nM. Also, the CC50 in data set [2] was > 100000 nM.
